Measurements taken from ChEMBL document CHEMBL3272309, “Potential central nervous system antitumor agents. Aziridinylbenzoquinones. 1” (J Med Chem, 1976).
Calls of active or inactive are those of the source. No cut-off for these calls is given here.

Experiments:
[1] = system: Mus musculus; assay: Toxicity in mouse allografted with mouse ependymoblastoma cells at 8 mg/kg, ip qd administered from day 1 to 5 post intracerebral tumor-implantation; type: organism-based; design: dose 8 mg/kg, route intraperitoneal; conditions: in vivo
[2] = system: L1210; assay: Antitumor activity against mouse L1210 cells allografted in mouse assessed as change in body weight at 3.12 mg/kg, ip qd administered from day 1 to 9 post ip tumor-implantation measured on day 5 relative to control; type: functional; conditions: route intraperitoneal
[3] = system: L1210; assay: Antitumor activity against mouse L1210 cells allografted in mouse assessed as mouse survival at 1.3 mg/kg, ip qd administered from day 1 to 9 post ip tumor-implantation relative to control; type: functional; conditions: route intraperitoneal
[4] = system: B16; assay: Antitumor activity against mouse B16 cells allografted in mouse assessed as mouse survival at 1.56 mg/kg, ip qd administered from day 1 to 9 post ip tumor-implantation relative to control; type: functional; conditions: route intraperitoneal
[5] = system: L1210; assay: Antitumor activity against mouse L1210 cells allografted in mouse assessed as mouse survival at 1.56 mg/kg, ip qd administered from day 1 to 9 post intracerebral tumor-implantation relative to control; type: functional; conditions: route intraperitoneal
[6] = Antitumor activity against mouse ependymoblastoma cells allografted in mouse assessed as change in body weight at 4 mg/kg, ip qd administered from day 1 to 5 post intracerebral tumor-implantation measured on day 5 relative to control; type: functional; conditions: route intraperitoneal
[7] = system: Mus musculus; assay: Toxicity in mouse allografted with mouse P388 cells at 6.25 mg/kg, ip qd administered from day 1 to 9 post ip tumor-implantation; type: organism-based; design: dose 6.25 mg/kg, route intraperitoneal; conditions: in vivo
[8] = system: L1210; assay: Antitumor activity against mouse L1210 cells allografted in mouse assessed as change in body weight at 6.25 mg/kg, ip qd administered from day 1 to 9 post ip tumor-implantation measured on day 5 relative to control; type: functional; conditions: route intraperitoneal
[9] = system: P388; assay: Antitumor activity against mouse P388 cells allografted in mouse assessed as change in body weight at 6.25 mg/kg, ip qd administered from day 1 to 9 post intracerebral tumor-implantation measured on day 5 relative to control; type: functional; conditions: route intraperitoneal
[10] = system: Mus musculus; assay: Toxicity in mouse allografted with mouse L1210 cells at 12.5 mg/kg, ip qd administered from day 1 to 9 post ip tumor-implantation; type: organism-based; design: dose 12.5 mg/kg, route intraperitoneal; conditions: in vivo
[11] = system: Mus musculus; assay: Antitumor activity against mouse ependymoblastoma cells allografted in mouse assessed as cure rate at 2 mg/kg, ip qd administered from day 1 to 5 post intracerebral tumor-implantation measured on day 99; type: functional, organism-based; design: dose 2 mg/kg
[12] = system: L1210; assay: Antitumor activity against mouse L1210 cells allografted in mouse assessed as change in body weight at 4.6 mg/kg, ip qd administered from day 1 to 9 post ip tumor-implantation measured on day 5 relative to control; type: functional; conditions: route intraperitoneal
[13] = system: P388; assay: Antitumor activity against mouse P388 cells allografted in mouse assessed as mouse survival at 3.12 mg/kg, ip qd administered from day 1 to 9 post intracerebral tumor-implantation relative to control; type: functional; conditions: route intraperitoneal
[14] = Therapeutic ratio, ratio of highest active dose to lowest active for antitumor activity against in ip dosed mouse allografted with mouse P388 cells; type: ADME, organism-based; conditions: in vivo, read-out: TI
[15] = system: L1210; assay: Antitumor activity against mouse L1210 cells allografted in mouse assessed as mouse survival at 3.12 mg/kg, ip qd administered from day 1 to 9 post ip tumor-implantation relative to control; type: functional; conditions: route intraperitoneal
[16] = Therapeutic ratio, ratio of highest active dose to lowest active for antitumor activity against in ip dosed mouse allografted with mouse B16 cells; type: ADME, organism-based; conditions: in vivo, read-out: TI
[17] = system: Mus musculus; assay: Toxicity in mouse allografted with mouse LLC cells at 4 mg/kg, ip qd administered from day 5 to 15 post sc tumor-implantation; type: organism-based; design: dose 4 mg/kg; conditions: in vivo
[18] = system: P388; assay: Antitumor activity against mouse P388 cells allografted in mouse assessed as mouse survival at 3.12 mg/kg, ip qd administered from day 1 to 9 post ip tumor-implantation relative to control; type: functional; conditions: route intraperitoneal
[19] = system: L1210; assay: Antitumor activity against mouse L1210 cells allografted in mouse assessed as change in body weight at 12.5 mg/kg, ip qd administered from day 1 to 9 post ip tumor-implantation measured on day 5 relative to control; type: functional; conditions: route intraperitoneal
[20] = system: Lewis lung carcinoma cell line; assay: Antitumor activity against mouse LLC cells allografted in mouse assessed as change in body weight at 2 mg/kg, ip qd administered from day 5 to 15 post sc tumor-implantation measured on day 5 relative to control; type: functional; conditions: route subcutaneous
[21] = system: P388; assay: Antitumor activity against mouse P388 cells allografted in mouse assessed as change in body weight at 6.25 mg/kg, ip qd administered from day 1 to 9 post ip tumor-implantation measured on day 5 relative to control; type: functional; conditions: route intraperitoneal
[22] = system: Lewis lung carcinoma cell line; assay: Antitumor activity against mouse LLC cells allografted in mouse assessed as change in body weight at 4 mg/kg, ip qd administered from day 5 to 15 post sc tumor-implantation measured on day 5 relative to control; type: functional; conditions: route subcutaneous
[23] = system: B16; assay: Antitumor activity against mouse B16 cells allografted in mouse assessed as mouse survival at 3.12 mg/kg, ip qd administered from day 1 to 9 post ip tumor-implantation relative to control; type: functional; conditions: route intraperitoneal
[24] = system: P388; assay: Antitumor activity against mouse P388 cells allografted in mouse assessed as mouse survival at 0.78 mg/kg, ip qd administered from day 1 to 9 post intracerebral tumor-implantation relative to control; type: functional; conditions: route intraperitoneal
[25] = system: P388; assay: Antitumor activity against mouse P388 cells allografted in mouse assessed as change in body weight at 3.12 mg/kg, ip qd administered from day 1 to 9 post intracerebral tumor-implantation measured on day 5 relative to control; type: functional; conditions: route intraperitoneal
[26] = system: Mus musculus; assay: Toxicity in mouse allografted with mouse B16 cells at 6.25 mg/kg, ip qd administered from day 1 to 9 post ip tumor-implantation; type: organism-based; design: dose 6.25 mg/kg, route intraperitoneal; conditions: in vivo
[27] = system: B16; assay: Antitumor activity against mouse B16 cells allografted in mouse assessed as change in body weight at 3.12 mg/kg, ip qd administered from day 1 to 9 post ip tumor-implantation measured on day 5 relative to control; type: functional; conditions: route intraperitoneal
[28] = system: L1210; assay: Antitumor activity against mouse L1210 cells allografted in mouse assessed as change in body weight at 1.56 mg/kg, ip qd administered from day 1 to 9 post intracerebral tumor-implantation measured on day 5 relative to control; type: functional; conditions: route intraperitoneal
[29] = Antitumor activity against mouse ependymoblastoma cells allografted in mouse assessed as mouse survival at 2 mg/kg, ip qd administered from day 1 to 5 post intracerebral tumor-implantation relative to control; type: functional; conditions: route intraperitoneal
[30] = Antitumor activity against mouse ependymoblastoma cells allografted in mouse assessed as change in body weight at 0.25 mg/kg, ip qd administered from day 1 to 5 post intracerebral tumor-implantation measured on day 5 relative to control; type: functional; conditions: route intraperitoneal
[31] = system: L1210; assay: Antitumor activity against mouse L1210 cells allografted in mouse assessed as mouse survival at 4.6 mg/kg, ip qd administered from day 1 to 9 post ip tumor-implantation relative to control; type: functional; conditions: route intraperitoneal
[32] = Therapeutic ratio, ratio of highest active dose to lowest active for antitumor activity against in ip dosed mouse allografted with mouse LLC cells; type: organism-based, Lewis lung carcinoma; conditions: in vivo, read-out: TI
[33] = Antitumor activity against mouse ependymoblastoma cells allografted in mouse assessed as change in body weight at 0.5 mg/kg, ip qd administered from day 1 to 5 post intracerebral tumor-implantation measured on day 5 relative to control; type: functional; conditions: route intraperitoneal
[34] = system: P388; assay: Antitumor activity against mouse P388 cells allografted in mouse assessed as change in body weight at 0.39 mg/kg, ip qd administered from day 1 to 9 post intracerebral tumor-implantation measured on day 5 relative to control; type: functional; conditions: route intraperitoneal

CCOC(=O)NC1=C(N2CC2)C(=O)C(NC(=O)OCC)=C(N2CC2)C1=O [DIAZIQUONE]
Activity [1]: Toxic | Activity [2]: -4.1 g | T/C [3]: 160% | T/C [4]: 138% | T/C [5]: 146% | Activity [6]: -3.9 g | Activity [7]: Toxic | Activity [8]: -4.1 g | Activity [9]: -2.8 g | Activity [10]: Toxic | Activity [11]: Active | Activity [12]: -4.6 g | T/C [13]: 131% | selectivity ratio [14]: 3 | T/C [15]: 128% | selectivity ratio [16]: 3 | Activity [17]: Toxic | T/C [18]: 100% | Activity [19]: -5 g | Activity [20]: 0.3 g | Activity [21]: -6.1 g | Activity [22]: -0.1 g | T/C [23]: 143% | T/C [24]: 125% | Activity [25]: -2.1 g | Activity [26]: Toxic | Activity [27]: -2.7 g | Activity [28]: -0.6 g | T/C [29]: 271% | Activity [30]: -1.5 g | T/C [31]: 98% | selectivity ratio [32]: 3 | Activity [33]: -1.8 g | Activity [34]: -0.7 g
